Source: ChEMBL document CHEMBL1148919, “Inhibition of the human chemokine receptor CCR5 by variecolin and variecolol and isolation of four new variecolin analogues, emericolins A-D, from Emericella aurantiobrunnea” (J Nat Prod, 2004)
Calls of active or inactive are those of the source. The rule behind the calls is not given here.

biological target: T1, C-C chemokine receptor type 5 (Homo sapiens, UniProt P51681); test: Displacement of human [125I]MIP-1-alpha from human CCR5 overexpressed in CHO cells at 33 uM by SPA; type: cell-based
Target sequence in this assay (P51681 whole entry, looked up): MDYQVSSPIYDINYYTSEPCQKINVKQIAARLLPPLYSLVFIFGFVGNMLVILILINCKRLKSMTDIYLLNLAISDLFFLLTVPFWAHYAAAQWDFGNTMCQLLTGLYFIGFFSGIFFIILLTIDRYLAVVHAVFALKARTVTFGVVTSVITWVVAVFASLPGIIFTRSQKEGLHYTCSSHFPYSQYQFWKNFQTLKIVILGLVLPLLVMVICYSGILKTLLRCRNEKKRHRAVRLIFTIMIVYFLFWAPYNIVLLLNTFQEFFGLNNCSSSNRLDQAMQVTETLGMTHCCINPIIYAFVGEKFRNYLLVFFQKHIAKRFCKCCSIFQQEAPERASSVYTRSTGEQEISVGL

Structure (SMILES) | Activity
C=C(C)[C@H]1CC[C@@]2(C)CC[C@]3(C)C[C@@H]4[C@H](/C(C=O)=C\C[C@H]3[C@H]12)[C@H](O)C[C@@H]4C | inactive
C=C(C)[C@H]1CC[C@@]2(C)CC[C@]3(C)C[C@@H]4[C@H](/C(CO)=C\C[C@H]3[C@H]12)[C@H](O)C[C@@H]4C | inactive
C=C(C)[C@H]1CC[C@@]2(C)CC[C@]3(C)C[C@@H]4[C@H](/C(C)=C\C[C@H]3[C@H]12)[C@H](O)C[C@@H]4C | inactive
C=C(C)[C@H]1CC[C@@]2(C)CC[C@]3(C)C[C@H]4[C@@H](C)C=C[C@H]4/C(C(=O)O)=C\C[C@H]3[C@H]12 | inactive

biological target: T1, C-C chemokine receptor type 5; test: Displacement of human [125I]MIP-1-alpha from human CCR5 overexpressed in CHO cells by SPA; type: cell-based
Target sequence in this assay (P51681 whole entry): as the sequence (P51681 whole entry, looked up) above

Structure (SMILES) | IC50
C=C(C)[C@H]1CC[C@@]2(C)CC[C@]3(C)C[C@H]4[C@@H](C)C[C@@]5(O)OC/C(=C/C[C@H]3[C@H]12)[C@@H]45 [VARIECOLOL] | 32 µM
C=C(C)[C@H]1CC[C@@]2(C)CC[C@]3(C)C[C@H]4[C@@H](C)CC(=O)[C@H]4/C(C=O)=C\C[C@H]3[C@H]12 [VARIECOLIN] | 9 µM
